# Measurements: patent publication US6054432A, “Means for treating prostate hypertrophy and prostate cancer” (Asta Medica Aktiengesellschaft, priority 1997, dated 2000)
# Non-standard residues stand in square brackets, D forms with d. Residues, ends and D or L forms follow the SMILES beside them. dPhe(4-Cl) = N[C@H](Cc1ccc(Cl)cc1)C(=O)O; d2Nal = N[C@H](Cc1ccc2ccccc2c1)C(=O)O; dCit = NC(=O)NCCC[C@@H](N)C(=O)O; d3Pal = N[C@H](Cc1cccnc1)C(=O)O
# How the values were obtained:
# [1] = tested on: benign prostate hypertrophy (BPH) patients; assay: Clinical therapy of BPH with Cetrorelix (Example 1); assay type: in vivo, human; conditions: 4 to 8 weeks therapy regimen
# Procedure: Cetrorelix is administered in a dose of 0.5 mg to 2 mg daily for 4 to 8 weeks for the therapy of BPH. A dose of 5 mg to 30 mg, dispensed once per week or every 10 days also over a time period of 4 to 8 weeks as well as one every two weeks or one injection per month of 20 mg to 60 mg can also decisively improve the clinical symptoms and signs. […] The prostate volume decreases by 20 to 40% during the treatment time of 4 to 8 weeks. […] In addition, at least 30% of the patients achieve an improvement of the urine flow of 6 ml/sec with this therapy. This is almost equivalent to an improvement like that associated with the golden standard operation, and in considerably shorter time. […] These clinical benefits continue for at least 3 to 6 months after therapy. This allows a long-term therapy of BPH with only an intermittent treatment of 2 to max. 4 injection cycles over 4 to 8 weeks.
# This therapy represents a significant therapeutic advance in the treatment of BPH since it not only achieves an improvement of the clinical symptoms of BPH but also a diminution of the prostate and an improvement of the urine flow like those associated with surgery The protocols of the invention avoid the negative consequences of an operation, e.g. urine incontinence, retrograde ejaculation, blood loss with the consequence of blood transfusions and also the risks of infection associated with surgery.
# BPH patients = conditions: 500 μg every 12 hours for 4 weeks, cited from earlier work
# [2] = tested on: prostate carcinoma patients; conditions: cited from earlier work
# [3] = 500 μg every 12 hours, end of the 6 weeks of therapy
compound,measurement,setting,value
CC(=O)N[C@H](Cc1ccc2ccccc2c1)C(=O)N[C@H](Cc1ccc(Cl)cc1)C(=O)N[C@H](Cc1cccnc1)C(=O)N[C@@H](CO)C(=O)N[C@@H](Cc1ccc(O)cc1)C(=O)N[C@H](CCCNC(N)=O)C(=O)N[C@@H](CC(C)C)C(=O)N[C@@H](CCCNC(=N)N)C(=O)N1CCC[C@H]1C(=O)N[C@H](C)C(N)=O [Cetrorelix] (Ac-[d2Nal][dPhe(4-Cl)][d3Pal]SY[dCit]LRP[dA]-NH2),patients achieving an improvement of the urine flow of 6 ml/sec,[1],at least 30%
same,quality of life,[1],significant improvements
same,sexual performance,[1],No limitations in sexual performance are observed
same,testosterone level,[1],"Submaximal decreases of testosterone occur, but these are above those levels associated with castration"
same,increase of the peak flow of the urine,[1]; comparable to the α-blockers,approximately 3 ml/sec
same,testosterone levels during treatment,"BPH patients; BPH patients, no castration values during the last three weeks",fluctuated at subnormal levels
same,"testosterone levels, initially","BPH patients; all patients, initial phase",lowering in testosterone levels to a castration level
same,prostate volume,BPH patients,distinct decrease
same,symptoms of dysuria,BPH patients,distinct decrease
same,"testosterone levels, initially","[2]; 500 μg every 12 hours for 6 weeks, all patients, initial phase",lowering in testosterone levels to a castration level
same,overall condition of the patient,[2]; [3],considerable improvement
same,testosterone values at the end of therapy,[2]; [3],at the castration levels
